Laboratory results taken from patent US9012648B2, “Haptens of risperidone and paliperidone” (Janssen Pharmaceutica NV, priority 2012, dated 2015).
Where “and” joins values, the source holds several entries; their conditions need not be identical. Equal entries are not always repeated.

What was measured:
hybridoma subclone 2A5 = test: Competition ELISA, hybridoma subclone 2A5 supernatant (FIG. 3); assay type: binding, mouse
Procedure: Supernatants were also tested by competition ELISA to determine if the signals were specific to either risperidone or paliperidone. […] In this competitive format as show in FIG. 4, a low level of analyte (risperidone) results in high signal, whereas a high level of analyte (risperidone) results in low signal. The amount of risperidone in the sample can be calculated from the loss of fluorescence compared to a control sample with no drug present.

[1] = ELISA reactivity of hybridoma supernatants, Ag = Bt-Compound#1 (second TABLE 1); assay type: binding, mouse
[2] = Dilution 10800, duplicate wells

Row | Compound | competition ELISA reactivity (in words) (hybridoma subclone 2A5) | ELISA reactivity ([1]; Dilution 400, duplicate wells) | ELISA reactivity ([1]; Dilution 1200, duplicate wells) | ELISA reactivity ([1]; Dilution 3600, duplicate wells) | ELISA reactivity [1, 2]
1 | Cc1nc2n(c(=O)c1CCN1CCC(c3noc4cc(F)ccc34)CC1)CCCC2O (stereo not shown) [paliperidone] | reactivity | – | – | – | –
2 | Cc1nc2n(c(=O)c1CCN1CCC(c3noc4cc(F)ccc34)CC1)CCCC2 [risperidone] | reactivity | – | – | – | –
3 | Cc1nc2n(c(=O)c1CCN1CCC(c3noc4cc(OCCN)ccc34)CC1)CCCC2O (stereo not shown) [Example 1, 3-(2-(4-(6-(2-aminoethoxy)benzo[d]isoxazol-3-yl)piperidin-1-yl)ethyl)-9-hydroxy-2-methyl-6,7,8,9-tetrahydro-4H-pyrido[1,2-a]pyrimidin-4-one] | – | 3.2562 and 3.1217 | 1.3591 and 1.2607 | 0.3745 and 0.3281 | 0.0918 and 0.0879
4 | 2-(2,5-dioxo-2,5-dihydro-1H-pyrrol-1-yl)-N-(2-((3-(1-(2-(9-hydroxy-2-methyl-4-oxo-6,7,8,9-tetrahydro-4H-pyrido[1,2-a]pyrimidin-3-yl)ethyl)piperidin-4-yl)benzo[d]isoxazol-6-yl)oxy)ethyl)acetamide-keyhole limpet hemocyanin-conjugate [Example 5] | – | 3.2897 and 3.1103 | 1.4605 and 1.4817 | 0.4617 and 0.4159 | 0.1149 and 0.1127
